Results on 27 compounds are retold here after US20250281452A1, “CHIRAL ARYL PROPIONIC ACID DERIVATIVE AND PHARMACEUTICAL COMPOSITION THEREOF, AND USE” (SHIJIAZHUANG DISCOVERY MEDICINE TECHNOLOGY CO., LTD, priority 2022, published 2025).

One data set relates to IL-6 in HFLS-RA cells. The experiment in a line: Effect on HFLS-RA cytokine secretion, IL-6 (ELISA). It is filed as cell-based, human. More on the design: unit not given here. The conditions noted are these: supernatant content, TNF-α 10 ng/mL, test sample 100 µg/mL, 48 h culture, x ± s. The procedure: (§1) The experiment was divided into a blank control group (containing no test samples or TNF-α), a TNF-α group (the final concentration of TNF-α for cell incubation was 10 ng/mL), test sample groups (8 groups in total, including DSC4801 group, DSC4807 group, DSC4810 group, DSC4813 group, DSC4821 group and DSC4826 group as well as control 1 group, control 3 group, the final concentrations of test samples for cell incubation and of TNT-α were 100 µg/mL and 10 ng/mL, respectively).
(§2) HFLS-RA cells in a logarithmic growth phase were inoculated in a 6-well culture plate at a density of 5×10^4 cell/ml with an inoculation volume of each well being 200 μL, and cultured for 2 h in a 37° C. and 5% CO2 incubator after inoculation, and then a proper amount of sample solutions was added according to the grouping and the final concentrations of samples, with 3 duplicated wells set in each group. Cell supernatant was collected after further culture of 48 h, and the contents of IL-6 and IL-8 in the supernatant were detected using an ELISA kit.
Background: An ELISA detects its analyte on a solid surface through an enzyme-linked reagent.

A further data set deals with IL-8 in HFLS-RA cells. Kind of data set: Effect on HFLS-RA cytokine secretion, IL-8 (ELISA). More on the design: unit not given here. The data set is classed as cell-based, human. The conditions noted are these: supernatant content, TNF-α 10 ng/mL, test sample 100 µg/mL, 48 h culture, x ± s. The procedure:
as §1, §2

A further data set relates to HFLS-RA cells. The experiment in a line: Effect on HFLS-RA cell proliferation activity (CCK-8). It is filed as cell-based, human. The conditions noted are these: TNF-α 10 ng/mL induced HFLS-RA cells, 72 h after treatment, x ± s. The procedure:
Co-incubation: HFLS-RA cells in a logarithmic growth phase were inoculated in a 96-well culture plate at a density of 3×10^4 cells/ml with an inoculation volume of each well being 100 μL, and cultured for 24 h in a 37° C. and 5% CO2 incubator (the cell adhesion convergence degree reached about 25%) after inoculation, and then a proper amount of sample solutions was added according to the grouping and final concentrations of samples, with 3 duplicated wells set in each group. Before sampling (0 h), group 1 in blank control group was subjected to CCK-8 detection, and the rest groups were cultured for 72 h in an incubator and then subjected to CCK-8 detection.
Detection and calculation: the culture solution was discarded, and 100 μL of culture medium containing a 10% CCK-8 solution was added into each well and incubated for 2 h at 37° C. The light absorption value (OD value) was measured at 450 nm using a microplate reader, and the cell proliferation rate was calculated according to the following formula.
cell proliferation rate=[OD(72 h)−OD(0 h)]/OD(0 h)×100%, Calculation formula
where, OD(0 h) represents the OD value at 0 h, and […].

Data set [1] in a line: Joint tissue distribution after oral gavage. It is filed as in vivo. To be noted: SD rats, ankle joint tissue at 0.5, 1, 2 h, trans-OH metabolite detected by LC-MS/MS, compared with control 1 and control 2, P<0.001 (FIG. 1). The procedure:
36 healthy male SD rats with a body weight of 200±20 g per rat were fed under conditions of a room temperature of 20-26° C., a humidity of 40%-70% and a light and dark cycle of 12 h/12 h, the rats were fed at liberty in the process of feeding. After adaptive feeding for 3 days, the SD rats were randomly divided into 4 groups (A/B/C/D groups), with 9 rats per group, each group was further randomly divided into 3 time groups, with 3 rats per time group. A suspension (the test samples were suspended with 1% MS, respectively) of the test sample was given to each group via oral gavage, wherein group A was administrated with 3 mg/kg of DSC4813, group B was administrated with 2.94 mg/kg of DSC4821, group C was administrated with 2.47 mg/kg of control 1, and group D was administrated with 2 mg/kg of control 2 (loxoprofen). 3 rats were anesthetized and euthanized in each group at 0.5 h, 1 h and 2 h, respectively after administration. The left and right ankle joints of hind legs were dissected, and the skin at the joints was peeled off. […] To-be-detected substances were detected by LC-MS/MS (compound trans-OH metabolite was detected for groups A/B/C, loxoprofen and all isomers whose carbonyl was reduced to OH for group D, and the results of group D were a sum of concentrations of loxoprofen and all isomers whose carbonyl was reduced to OH).

For data set [2] the following is noted: cited from earlier work.
For data set [3] the following is noted: after oral administration; cited from earlier work.
For data set [4] the following is noted: single local administration of 1% loxoprofen (100 mg), in 12 hours; cited from earlier work.

`CCN(CC)CCOC(=O)[C@@H](C)c1ccc(C[C@H]2CCC[C@@H]2O)cc1` [DSC4801] returned an IL-6 in the data set with IL-6 in HFLS-RA cells of 46.26 ± 0.35. The compound also displayed an IL-8 in the data set with IL-8 in HFLS-RA cells of 119.08 ± 4.55. In the data set on HFLS-RA cells, this compound yielded a Cell proliferation rate of 31.18 ± 1.82%.
With `CCN(CC)CCNCCOCC(=O)O[C@H]1CCC[C@@H]1Cc1ccc([C@H](C)C(=O)O)cc1` [DSC4808], in the data set on HFLS-RA cells, the Cell proliferation rate turned out to be 23.11 ± 2.25%.
In the data set with IL-6 in HFLS-RA cells, `CCN(CC)CCOC(=O)O[C@H]1CCC[C@@H]1Cc1ccc([C@H](C)C(=O)O)cc1` [DSC4826] had an IL-6 of 47.59 ± 0.45. For the same compound, the IL-8 in the data set on IL-8 in HFLS-RA cells was determined as 117.77 ± 4.23. In addition, the Cell proliferation rate in the data set on HFLS-RA cells came out at 21.43 ± 1.94%.
Turning to `CN(Cc1cnc2nc(N)nc(N)c2n1)c1ccc(C(=O)N[C@@H](CCC(=O)O)C(=O)O)cc1` [Negative control group, methotrexate, reference compound], in the data set on HFLS-RA cells (methotrexate 1 g/mL), the Cell proliferation rate is on record as 18.37 ± 1.32%.
Regarding `CCN(CC)CCOC(=O)[C@@H](C)c1ccc(C[C@H]2CCC[C@@H]2OC(=O)C(CS)N(C)C)cc1` (stereo partly drawn) [DSC4806], the Cell proliferation rate in the data set on HFLS-RA cells turned out to be 24.19 ± 2.24%.
As for `CCOC(=O)[C@@H](C)c1ccc(C[C@H]2CCC[C@@H]2OC(=O)COCC[N+](CC)(CC)CC)cc1` [DSC4817], in the data set on HFLS-RA cells, the Cell proliferation rate is given as 23.32 ± 2.46%.
On the same count and under the same terms, in the case of `CCN(CC)CCOCCOC(=O)[C@@H](C)c1ccc(C[C@H]2CCC[C@@H]2OC(C)=O)cc1` [DSC4805] it was 29.28 ± 1.92%; in that of `CCN(CC)CCOCCOC(=O)[C@@H](C)c1ccc(C[C@H]2CCC[C@@H]2O)cc1` [DSC4802], 27.26 ± 2.41%.
`CCN(CC)CCOC(=O)[C@@H](C)c1ccc(C[C@H]2CCC[C@@H]2OC(C)=O)cc1` [DSC4804] returned a Cell proliferation rate in the data set on HFLS-RA cells of 29.36 ± 2.33%.
`C[C@H](C(=O)OCCN1C(=O)CCC1=O)c1ccc(C[C@H]2CCC[C@@H]2O)cc1` [DSC4813] came in with an IL-6 in the data set with IL-6 in HFLS-RA cells of 46.82 ± 0.63. In the data set on IL-8 in HFLS-RA cells, this compound registered an IL-8 of 119.48 ± 4.07. Further, the Cell proliferation rate with HFLS-RA cells is on record as 22.34 ± 2.72%. In addition, in data set [1], the Distribution at joints result is reported as “significantly improved”.
Consider `C[C@H](C(=O)O)c1ccc(C[C@H]2CCC[C@@H]2OC(=O)C(CS)N(C)C)cc1` (stereo partly drawn) [DSC4810], for which, in the data set with IL-6 in HFLS-RA cells, the IL-6 is recorded as 47.88 ± 0.72. The IL-8 in the data set with IL-8 in HFLS-RA cells worked out at 118.57 ± 3.92. The compound also had a Cell proliferation rate with HFLS-RA cells of 24.95 ± 2.65%.
Take `CCCC(=O)O[C@H]1CCC[C@@H]1Cc1ccc([C@H](C)C(=O)O)cc1` [Control 1, reference compound]: the IL-6 with IL-6 in HFLS-RA cells is on record as 67.45 ± 2.68. The IL-8 with IL-8 in HFLS-RA cells amounted to 131.21 ± 6.88. Moreover, the Cell proliferation rate with HFLS-RA cells is 39.33 ± 3.46%.
As for `CCN(CC)CC(=O)O[C@H]1CCC[C@@H]1Cc1ccc([C@H](C)C(=O)O)cc1` [DSC4821], the IL-6 in the data set with IL-6 in HFLS-RA cells is given as 46.58 ± 0.61. For the same compound, in the data set with IL-8 in HFLS-RA cells, the IL-8 is listed as 117.72 ± 3.43. The compound also came in with a Cell proliferation rate with HFLS-RA cells of 20.96 ± 1.85%. Moreover, in data set [1], the Distribution at joints entry is “significantly improved”.
Consider `CCOC(=O)[C@@H](C)c1ccc(C[C@H]2CCC[C@@H]2OC(=O)COCC[N+](CC)(CC)CC)cc1` [DSC4818], for which the Cell proliferation rate in the data set with HFLS-RA cells was found to be 22.54 ± 2.14%.
Still for that read-out and setting: under `CCOC(=O)[C@@H](C)c1ccc(C[C@H]2CCC[C@@H]2OC(=O)CCN(CC)CC)cc1` [DSC4820] stands 21.11 ± 3.56%.
The compound `CCOC(=O)[C@@H](C)c1ccc(C[C@H]2CCC[C@@H]2OC(=O)CN(CC)CC)cc1` [DSC4819] yielded a Cell proliferation rate with HFLS-RA cells of 20.36 ± 2.10%.
`CCN(CC)CCOCC(=O)O[C@H]1CCC[C@@H]1Cc1ccc([C@H](C)C(=O)O)cc1` [DSC4807] gave an IL-6 in the data set with IL-6 in HFLS-RA cells of 48.01 ± 0.77. This compound also displayed an IL-8 in the data set with IL-8 in HFLS-RA cells of 121.66 ± 4.78. The compound further displayed a Cell proliferation rate in the data set with HFLS-RA cells of 22.23 ± 3.04%.
In the data set on HFLS-RA cells, `CC[N+](CC)(CC)CCOC(=O)[C@@H](C)c1ccc(C[C@H]2CCC[C@@H]2O)cc1` [DSC4815] came in with a Cell proliferation rate of 28.31 ± 2.26%.
Consider `CC(C(=O)O)c1ccc(CC2CCCC2=O)cc1` (stereo not drawn) [Control 2, loxoprofen, reference compound], for which the Cell proliferation rate with HFLS-RA cells came out at 48.25 ± 3.21%.
`CCOC(=O)[C@@H](C)c1ccc(C[C@H]2CCC[C@@H]2OC(=O)COCCN(CC)CC)cc1` [DSC4811]: in the data set on HFLS-RA cells, the Cell proliferation rate stood at 22.37 ± 1.78%.
On the same count and under the same terms, under `CCOC(=O)[C@@H](C)c1ccc(C[C@H]2CCC[C@@H]2OC(=O)OCCN(CC)CC)cc1` [DSC4825] stands 22.53 ± 2.66%; under `CC[N+](CC)(CC)CCOC(=O)[C@@H](C)c1ccc(C[C@H]2CCC[C@@H]2O)cc1` [DSC4816], 29.71 ± 2.83%.
In the data set on HFLS-RA cells, `CCOC(=O)[C@@H](C)c1ccc(C[C@H]2CCC[C@@H]2OC(=O)C(CS)N(C)C)cc1` (stereo partly drawn) [DSC4812] yielded a Cell proliferation rate of 23.81 ± 2.21%.
The compound `C[C@H](C(=O)O)c1ccc(C[C@H]2CCC[C@@H]2OC(=O)C(N)CS)cc1` (stereo partly drawn) [DSC4809] returned a Cell proliferation rate with HFLS-RA cells of 22.47 ± 1.99%.
With `CCN(CC)CCN(CC)CCOC(=O)[C@@H](C)c1ccc(C[C@H]2CCC[C@@H]2O)cc1` [DSC4803], in the data set on HFLS-RA cells, the Cell proliferation rate was 30.17 ± 1.85%.
As for `CC(=O)O[C@H]1CCC[C@@H]1Cc1ccc([C@H](C)C(=O)OCCN2C(=O)CCC2=O)cc1` [DSC4814], in the data set with HFLS-RA cells, the Cell proliferation rate came out at 24.36 ± 1.99%.
`CC(C(=O)O)c1ccc(CC2CCCC2=O)cc1` (stereo not drawn) [Control 2, loxoprofen]: in data set [2], the “Plasma protein binding rate” value is reported as 97%. Moreover, the “Time until plasma concentration reaches peak” value in data set [3] is 30 to 50 min. Moreover, the “Dose transferred to a body” value in data set [4] is on record as 10%.
